Assay results taken from PMC4821708 (Biochimica et biophysica acta, 2016).
Blank lines part the entries; values can stand above or below the compound they belong to.

Columns and labels:
Cytoglobin (Cygb) [1] = target: T1, Cytoglobin (Cygb) (Homo sapiens, UniProt Q8WWM9); assay: LC-MS/MS of lipid oxidation products by Cygb/H2O2; type: biochemical
Cytoglobin (Cygb) [2] = target: T1, Cytoglobin (Cygb); type: biochemical; details: cygb:lipid liposomes
[3] = target: Cytoglobin (Cygb), wild type (Homo sapiens, UniProt Q8WWM9); assay: differential absorbance spectroscopy titration, […] fit; type: binding
[4] = target: Cytoglobin (Cygb Δ1-15Δ174-190) (Homo sapiens, UniProt Q8WWM9, Δ1-15Δ174-190); assay: as above; type: binding
Sequence of Cytoglobin (Cygb Δ1-15Δ174-190) (Q8WWM9 16-173, stated change not applied): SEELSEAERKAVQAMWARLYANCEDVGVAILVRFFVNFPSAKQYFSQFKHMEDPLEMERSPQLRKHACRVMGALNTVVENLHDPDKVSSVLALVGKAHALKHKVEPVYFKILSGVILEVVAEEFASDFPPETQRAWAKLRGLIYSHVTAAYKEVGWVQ

T1 sequence (Q8WWM9 whole entry): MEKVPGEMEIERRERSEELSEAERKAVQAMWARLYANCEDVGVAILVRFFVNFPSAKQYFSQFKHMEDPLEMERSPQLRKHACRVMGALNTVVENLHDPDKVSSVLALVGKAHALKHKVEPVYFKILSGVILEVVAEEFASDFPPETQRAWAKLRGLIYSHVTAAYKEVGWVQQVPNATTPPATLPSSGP
Sequence of Cytoglobin (Cygb), wild type (Q8WWM9 whole entry): as above

Compound: CCCCC/C=C\C/C=C\C/C=C\C/C=C\CCCC(=O)O[C@H](COC(=O)CCCCCCCCCCCCCCCCC)COP(=O)(O)O [SAPA, 1-stearoyl-2-arachidonoyl-sn-glycero-3-phosphate]
- LC-MS/MS of lipid oxidation products by Cygb/H2O2 (Cytoglobin (Cygb) [1]): 5.6 ± 0.1 picomoles of oxidation products

- activation of peroxidase activity, Amplex Red oxidation, 1:25 Cygb:lipid liposom (Cytoglobin (Cygb) [2]): 1.6 fold increase in rate
Compound: CCCCCCCC/C=C\CCCCCCCC(=O)OC[C@H](COP(=O)(O)O)OC(=O)CCCCCCC/C=C\CCCCCCCC [DOPA, 1,2-dioleoyl-sn-glycero-3-phosphate]

Compound: CCCCCCCC/C=C\CCCCCCCC(=O)O [OA, oleic acid]
- Kd [3]: 2300 ± 1000 nM
- Kd [4]: 3 ± 1.8 µM
